Laboratory results from patent US6251914A, “Cycloalkyl substituted imidazoles” (SmithKline Beecham Corporation, priority 1999, dated 2001).
Counter-ions that a name gives are not always drawn.

molecular target: T1, CSBP2 (Homo sapiens, UniProt Q16539); assay: CSBP Kinase Assay (32P transfer to EGFR-derived peptide T669); assay type: biochemical; details: 170 uM ATP, 0.4 mM T669 peptide, 30° C., 10 min; read-out: positive inhibitory activity, IC50 in CSBP kinase assay
T1 construct: made in house; host or cells: yeast
T1 sequence (Q16539 whole entry): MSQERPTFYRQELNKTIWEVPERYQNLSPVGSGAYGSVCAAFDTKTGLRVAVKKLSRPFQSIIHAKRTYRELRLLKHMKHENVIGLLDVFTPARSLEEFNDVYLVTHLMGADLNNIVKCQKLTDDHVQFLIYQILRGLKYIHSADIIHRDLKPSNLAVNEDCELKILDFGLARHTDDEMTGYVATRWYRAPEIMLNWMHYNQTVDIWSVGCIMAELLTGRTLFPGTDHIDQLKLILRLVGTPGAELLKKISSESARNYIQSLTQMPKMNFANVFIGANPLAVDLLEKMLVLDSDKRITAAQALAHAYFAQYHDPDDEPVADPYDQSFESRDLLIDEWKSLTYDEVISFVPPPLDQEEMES
Experimental: This assay measures the CSBP-catalyzed transfer of ^32 P from […] to threonine residue in an epidermal growth factor receptor (EGFR)-derived peptide (T669) with the following sequence: […] (residues 661-681). (See Gallagher et al., "Regulation of Stress Induced Cytokine Production by Pyridinyl Imidazoles: Inhibition of CSPB Kinase", BioOrganic & Medicinal Chemistry, to be published 1996).
Kinase reactions (total volume 30 ul) contain: 25 mM Hepes buffer, pH 7.5; 10 mM MgCl2; 170 uM ATP^(1); 10 uM Na ortho vanadate; 0.4 mM T669 peptide; and 20-80 ng of yeast-expressed purified CSBP2 (see Lee et al., Nature 300, n(72), 739-746 (December 1994)). Compounds (5 ul from [6×] stock^(2)) are pre-incubated with the enzyme and peptide for 20 min. on ice prior to starting the reactions with 32P/MgATP. Reactions are incubated at 30° C. for 10 min. and stopped by adding 10 ul of 0.3 M phosphoric acid. 32P-labeled peptide is separated on phosphocellulose (Wattman, p81) filters by spotting 30 ul reaction mixture. Filters are washed 3 times with 75 mM phosphoric acid followed by 2 washes with H2 O, and counted for 32P.
^(2) Compounds are usually dissolved in DMSO and are diluted in 25 mM HEPES buffer to get final concentration of DMSO of 0.17%.

IC50 [µM] | SMILES
< 50 | COc1nccc(-c2c(-c3ccc(F)cc3)ncn2C2CC2)n1 [Example 14, 1-Cyclopropyl-4-(fluorophenyl)-5-(2-methoxypyrimidin-4-yl)imidazole]
< 50 | COc1nccc(-c2c(-c3ccc(F)cc3)ncn2C2CCCC2)n1 [Example 15, 1-Cyclopentyl-4-(4-fluorophenyl)-5-(2-methoxypyrimidin-4-yl)imidazole]
< 50 | COc1nccc(-c2c(-c3ccc(F)cc3)ncn2C2CCCCC2)n1 [Example 12, 1-Cyclohexyl-4-(4-fluorophenyl)-5-(2-methoxypyrimidin-4-yl)imidazole]
< 50 | CCOc1nccc(-c2c(-c3ccc(F)cc3)ncn2[C@H]2CC[C@H](O)CC2)n1 [Example 9, trans-1-(4-Hydroxycyclohexyl)-4-(4-fluorophenyl)-5-[(2-ethoxy)pyrimidine-4-yl]imidazole]

molecular target: T2, p38 (Homo sapiens, UniProt Q16539); assay: CSBP Kinase Assay, minor variation (activated p38, T669 peptide, 96 well plate); assay type: biochemical; details: 0.17 mM ATP, 0.67 mM T669 peptide, 24 nM p38, 37° C., 25 min; read-out: positive inhibitory activity, IC50 in kinase assay (minor variation)
T2 construct: made in house; host or cells: yeast
T2 sequence (Q16539 whole entry): as above
Experimental: A minor variation of the above assay is shown below:
Reactions were carried in round bottom 96 well plate (from Corning) in a […]. Reactions contained (in final concentration): 25 mM Hepes, pH7.5; 8 mM MgCl2; 0.17 mM ATP (the Km[ATP] of p38 (see Lee et al., Nature 300, n72 pg 639-746 (December 1994)); 2.5 uCi of [g-32P]ATP; 0.2 mM sodium orthovanadate; 1 mM DTT; 0.1% BSA; 10% glycerol; 0.67 mM T669 peptide; and 24 nM of yeast-expressed, activated and purified p38. Reactions were initiated by the addition of [gamma-32P]Mg/ATP, and incubated for 25 min. at 37° C. Inhibitors (dissolved in DMSO) were incubated with the reaction mixture on ice for 30 minutes prior to adding the 32P-ATP. Final DMSO concentration was 0.16%. Reactions were terminated by adding 10 ul of 0.3 M phosphoric acid, and phosphorylated peptide was isolated from the reactions by capturing it on p81 phosphocellulose filters. Filters were washed with 75 mM phosphoric acids, and incorporated 32P was quantified using beta scintillation counter. Under these conditions, the specific activity of p38 was 400-450 pmol/pmol enzyme, and the activity was linear for up to 2 hr of incubation. The kinase activity values were obtained after subtracting values generated in the absence of substrate which were 10-15% of total values.

IC50 [µM] | SMILES
< 50 | COc1nccc(-c2c(-c3ccc(F)cc3)ncn2[C@H]2CC[C@H](OCCN(C)C)CC2)n1 [Example 18, trans-4-(4-Fuorophenyl)-1-[4-(2-(N,N-dimethylamino)ethoxy)cyclohexyl]-5-[(2-methoxy)pyrimidine-4-yl]-imidazole hydrochloride]
< 50 | COc1nccc(-c2c(-c3ccc(F)cc3)ncn2C2CCC2)n1 [Example 13, 1-Cyclobutyl-4-(4-fluorophenyl)-5-(2-methoxypyrimidin-4-yl)imidazole]
< 50 | COc1nccc(-c2c(-c3ccc(F)cc3)ncn2[C@H]2CC[C@H](OCSC)CC2)n1 [Example 17, trans-4-(4-Fluorophenyl)-5-(2-methoxypyrimidin-4-yl)-1-[4-(methylthiomethoxy)cyclohexyl]imidazole]
< 50 | COc1nccc(-c2c(-c3ccc(F)cc3)ncn2C2CCCCCC2)n1 [Example 16, 1-Cycloheptyl-4-(4-fluorophenyl)-5-(2-methoxypyrimidin-4-yl)imidazole]

system: IL-1 and TNF; assay: not given; details: cited from earlier work

SMILES | inhibition of IL-1 and TNF
C[S+]([O-])c1ccc(-c2nc(-c3ccncc3)c(-c3ccc(F)cc3)[nH]2)cc1 (stereo not drawn) [SB 203580] | inhibiting IL-1 and TNF
Fc1ccc(-c2nc3n(c2-c2ccncc2)CCS3)cc1 [SK&F 86002] | inhibiting IL-1 and TNF

system: IL-6, IL-8, GM-CSF and COX-2; assay: not given; details: cited from earlier work

SMILES | synthesis of pro-inflammatory proteins including IL-6, IL-8, GM-CSF and COX-2
C[S+]([O-])c1ccc(-c2nc(-c3ccncc3)c(-c3ccc(F)cc3)[nH]2)cc1 (stereo not drawn) [SB 203580] | decrease the synthesis
Fc1ccc(-c2nc3n(c2-c2ccncc2)CCS3)cc1 [SK&F 86002] | decrease the synthesis
